A value given as a limit tells only on which side of the number the result lay.

T1 sequence (Q16539 whole entry): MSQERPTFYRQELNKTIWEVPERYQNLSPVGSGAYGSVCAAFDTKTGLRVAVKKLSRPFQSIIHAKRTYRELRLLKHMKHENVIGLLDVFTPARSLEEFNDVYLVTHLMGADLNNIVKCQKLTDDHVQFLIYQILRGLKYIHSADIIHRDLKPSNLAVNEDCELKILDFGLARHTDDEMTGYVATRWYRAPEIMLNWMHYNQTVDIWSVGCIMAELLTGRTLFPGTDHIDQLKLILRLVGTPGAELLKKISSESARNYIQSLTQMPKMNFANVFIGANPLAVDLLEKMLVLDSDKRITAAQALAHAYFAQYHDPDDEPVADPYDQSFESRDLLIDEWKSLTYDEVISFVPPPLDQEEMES

One test concerns the target T1, purified recombinant human p38 alpha MAPK (Homo sapiens, UniProt Q16539).
T1 construct: purchased Millipore, USA
In words: Inhibition of p38 alpha MAPK activity, TR-FRET kinase assay. The format is biochemical. Conditions: Concentration 100 nM; read-out: P38α Inhibition. In a few lines:
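Recombinant human p38α preincubated 15 min at RT with compound (0.5–1.0% DMSO), then 30 nM biotinylated GST-ATF2 and 100 μM ATP added for 60 min at RT. Stopped with EDTA; Eu-anti-phospho-ATF2 and APC-streptavidin detection, 60 min. % inhibition from 665/615 nm TR-FRET ratio.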
In the case of `CC(C)(C)c1cc(NC(=O)Nc2ccc(OCCN3CCn4c(nnc4-c4ccc(O)cc4O)C3)c3c2CCC3)n(-c2ccc(O)c(Cl)c2)n1` [Compound 63, 1-[3-tert-butyl-1-(3-chloro-4-hydroxyphenyl)-1H-pyrazol-5-yl]-3-(7-{2-[3-(2,4-dihydroxyphenyl)-5,6-dihydro[1,2,4]triazolo[4,3-a]pyrazin-7(8H)-yl]ethoxy}-2,3-dihydro-1H-inden-4-yl)urea], the inhibition at 0.1 µM was 60 to 80%.

Staying with this test, now noted: Concentration 1 μM; read-out: P38α Inhibition.
Regarding `CC(C)(C)c1cc(NC(=O)Nc2ccc(OCCN3CCN(CC4CC4)C(=O)C3)c3c2CCC3)n(-c2ccccc2)n1` [Compound 61, 1-(3-tert-butyl-1-phenyl-1H-pyrazol-5-yl)-3-(7-{2-[4-(cyclopropylmethyl)-3-oxopiperazin-1-yl]ethoxy}-2,3-dihydro-1H-inden-4-yl)urea], the inhibition at 1 µM fell in the range of 60 to 80%. On the same count and under the same terms, for `Cc1ccccc1-n1nc(C(C)(C)C)cc1NC(=O)Nc1ccc(OCCN2CCN(CC3CC3)C(=O)C2)c2c1CCC2` [Compound 62, 1-[3-tert-butyl-1-(2-methylphenyl)-1H-pyrazol-5-yl]-3-(7-{2-[4-(cyclopropylmethyl)-3-oxopiperazin-1-yl]ethoxy}-2,3-dihydro-1H-inden-4-yl)urea] the value was 40 to 60%; for `COc1c(NC(=O)Nc2ccc(OCCN3CCN(CC4CC4)C(=O)C3)c3c2CCC3)cc(C(C)(C)C)cc1NC(=O)C1CC1` [Compound 64, N-(5-tert-butyl-3-{[(7-{2-[4-(cyclopropylmethyl)-3-oxopiperazin-1-yl]ethoxy}-2,3-dihydro-1H-inden-4-yl)carbamoyl]amino}-2-methoxyphenyl)cyclopropanecarboxamide], 20 to 40%; for `CC(C)(C)c1cc(NC(=O)Nc2ccc(OCCN3CCn4c(nnc4C4CCCCC4)C3)c3c2CCC3)n(-c2ccc(O)c(Cl)c2)n1` [Compound 65, 1-[3-tert-butyl-1-(3-chloro-4-hydroxyphenyl)-1H-pyrazol-5-yl]-3-{7-[2-(3-cyclohexyl-5,6-dihydro[1,2,4]triazolo[4,3-a]pyrazin-7(8H)-yl)ethoxy]-2,3-dihydro-1H-inden-4-yl}urea], 20 to 40%. On to `Cc1ccc(-n2nc(C(C)(C)C)cc2NC(=O)Nc2cc(C)c(OCCN3CCn4c(nnc4-c4cc(Cl)ccc4O)C3)c3c2CCC3)cc1` [Compound 66, 1-[3-tert-butyl-1-(4-methylphenyl)-1H-pyrazol-5-yl]-3-(7-{2-[3-(5-chloro-2-hydroxyphenyl)-5,6-dihydro[1,2,4]triazolo[4,3-a]pyrazin-7(8H)-yl]ethoxy}-6-methyl-2,3-dihydro-1H-inden-4-yl)urea], for which the inhibition at 1 µM was less than 20%. With `Cc1ccc(-n2nc(C(C)(C)C)cc2NC(=O)Nc2ccc(OCCN3CCn4c(nnc4-c4cccc5ccccc45)C3)c3c2CCC3)cc1` [Compound 67, 1-[3-tert-butyl-1-(4-methylphenyl)-1H-pyrazol-5-yl]-3-(7-{2-[3-(naphthalen-1-yl)-5,6-dihydro[1,2,4]triazolo[4,3-a]pyrazin-7(8H)-yl]ethoxy}-2,3-dihydro-1H-inden-4-yl)urea], the inhibition at 1 µM is 60 to 80%. The same measure, in the same setting: for `Cc1ccc(-n2nc(C(C)(C)C)cc2NC(=O)Nc2ccc(OCCN3CCn4c(nnc4C4CCCCC4)C3)c3c2CCC3)cc1` [Compound 68, 1-[3-tert-butyl-1-(4-methylphenyl)-1H-pyrazol-5-yl]-3-{7-[2-(3-cyclohexyl-5,6-dihydro[1,2,4]triazolo[4,3-a]pyrazin-7(8H)-yl)ethoxy]-2,3-dihydro-1H-inden-4-yl}urea] the value was 40 to 60%. Same read-out and setting: then `Cc1ccc(-n2nc(C(C)(C)C)cc2NC(=O)Nc2ccc(OCCN3CCn4c(nnc4-c4oc5ccccc5c4C)C3)c3c2CCC3)cc1` [Compound 69, 1-[3-tert-butyl-1-(4-methylphenyl)-1H-pyrazol-5-yl]-3-(7-{2-[3-(3-methyl-1-benzofuran-2-yl)-5,6-dihydro[1,2,4]triazolo[4,3-a]pyrazin-7(8H)-yl]ethoxy}-2,3-dihydro-1H-inden-4-yl)urea], with 40 to 60%; and `COc1cc(-n2nc(C(C)(C)C)cc2NC(=O)Nc2ccc(OCCN3CCN(CC4CC4)C(=O)C3)c3c2CCC3)cc(OC)c1OC` [Compound 70, 1-[3-tert-butyl-1-(3,4,5-trimethoxyphenyl)-1H-pyrazol-5-yl]-3-(7-{2-[4-(cyclopropylmethyl)-3-oxopiperazin-1-yl]ethoxy}-2,3-dihydro-1H-inden-4-yl)urea], with 40 to 60%; and `COc1c(NC(=O)Nc2ccc(OCCN3CCn4c(nnc4C4CCCCC4)C3)c3c2CCC3)cc(C(C)(C)C)cc1NS(C)(=O)=O` [Compound 72, N-{5-tert-butyl-3-[({7-[2-(3-cyclohexyl-5,6-dihydro[1,2,4]triazolo[4,3-a]pyrazin-7(8H)-yl)ethoxy]-2,3-dihydro-1H-inden-4-yl}carbamoyl)amino]-2-methoxyphenyl}methanesulfonamide], with 40 to 60%. Same read-out and setting: for `COc1c(NC(=O)Nc2cc(C)c(OCCN3CCn4c(nnc4-c4cc(Cl)ccc4O)C3)c3c2CCC3)cc(C(C)(C)C)cc1NS(C)(=O)=O` [Compound 73, N-(5-tert-butyl-3-{[(7-{2-[3-(5-chloro-2-hydroxyphenyl)-5,6-dihydro[1,2,4]triazolo[4,3-a]pyrazin-7(8H)-yl]ethoxy}-6-methyl-2,3-dihydro-1H-inden-4-yl)carbamoyl]amino}-2-methoxyphenyl)methanesulfonamide] the value was 40 to 60%.

Take `COc1c(NC(=O)Nc2ccc(OCCN3CCn4c(nnc4-c4cccc5ccccc45)C3)c3c2CCC3)cc(C(C)(C)C)cc1NS(C)(=O)=O` [Compound 74, N-(5-tert-butyl-2-methoxy-3-{[(7-{2-[3-(naphthalen-1-yl)-5,6-dihydro[1,2,4]triazolo[4,3-a]pyrazin-7(8H)-yl]ethoxy}-2,3-dihydro-1H-inden-4-yl)carbamoyl]amino}phenyl)methanesulfonamide]: the inhibition at 1 µM fell in the range of 60 to 80%.

These data come from patent US9963463B2, “Urea-substituted indanes as P38 map kinase inhibitors” (TORRENT PHARMACEUTICALS LIMITED, priority 2014, dated 2018).
